Laboratory results reported in article PMC12720774, “Detergents alter the stability and lipid binding properties of the CD1d immunoreceptor” (Protein Science : A Publication of the Protein Society, 2025).
Where “and” joins values, the source holds several entries; their conditions need not be identical. Equal entries are not always repeated.

Key:
[1] = target: T1, CSP 319‐328/HLA‐B*08:01/hβ2M complex (Homo sapiens, UniProt P01889, A93T/A95T/D138N/E176V/E187T/K202T/Q94N/R180D/S35A/V36M/Y33D/Y91F); test: ITF with peptide/HLA complex; type: binding; settings: for ITF change in Trp fluorescence (F-F0/F0): peptide/HLA with ODG, replicates
T1 construct: made in house
Excerpt: (§1) To determine whether detergent effects were specific to hCD1d, we performed analogous ITF, MST, and nanoDSF experiments with a peptide/HLA complex. HLA‐B*08:01, presenting the Plasmodium falciparum derived peptide […] ([…]), was selected as a representative model system since the peptide antigen contains hydrophilic solvent‐exposed residues in the antigen‐binding groove (Frooman et al., [2025]). Although structurally similar to that of hCD1d, HLA‐B*08:01 shares low sequence identity (Figure S10a). […] By nanoDSF, ODG caused minimal destabilization of either complex (ΔT m≈−0.2 to −0.8°C; Figure S10f). […] We posit that lipid‐specific unloading effects of detergent are due to either hydrophobic residues in the antigen binding groove (detergent‐CD1d interactions) and/or the hydrophobic nature of the lipid antigen (detergent‐lipid interactions).
(§2) For comparison with peptide/HLA molecules, we prepared recombinant CSP 319‐328/HLA‐B*08:01/hβ2M complex using in vitro refolding methods fully described previously (Frooman et al., [2025]). The peptide sequence for CSP 319–328 is […]. This peptide was chosen since it contains Lys, Gln, and Asp residues predicted to be solvent‐exposed in the HLA‐B*08:01 binding groove (Frooman et al., [2025]).
ITF experiments with peptide/HLA molecules and detergents were performed using an analogous protocol.

[2] = target: T1, CSP 319‐328/HLA‐B*08:01/hβ2M complex; test: MST with peptide/HLA complex; type: binding; settings: for MST normalized fluorescence signal (Fnorm): peptide/HLA with ODG, replicates
Excerpt: as §1, §2
MST experiments with peptide/HLA molecules and detergents were performed using an analogous protocol.

hCD1d = hCD1d (Homo sapiens, UniProt P15813+P61769); test: Nano differential scanning fluorimetry (nanoDSF) thermal stability; type: binding; set-up: TEV protease cleavage site ENLYFQS (C); BirA biotinylation site (C); His7 (C); made in house; host or cells: TurboCHO cells (GenScript); settings: for ΔTm aveage: Figure 5C, nanoDSF, hCD1d with detergent; for ΔT m (NanoDSF): T m difference between hCD1d in the absence and presence of 1000 μM detergent, 1 μM hCD1d; for ΔT m, detergent class summary: approximate
Excerpt: We next sought to probe the ability of each detergent to influence the thermal stability of hCD1d. NanoDSF has been previously applied to measure lipid/detergent‐induced thermal stability changes in target proteins (Cecchetti et al., [2021]; Kotov et al., [2019]), but has not yet been applied to ligand binding to CD1. NanoDSF measures the ITF ratio (F 350 nm/F 330 nm) of proteins as a function of temperature to extract thermodynamic parameters. Given that ligand binding typically shifts the melting temperature of proteins, the effect of a ligand on protein stability can be approximated with the ΔT m value (the difference in T m with and without excess ligand) (Cecchetti et al., [2021]; Kotov et al., [2019]). We found all detergents tested to destabilize hCD1d, albeit to different degrees, with ΔT m values ranging from −0.8 to −14.2°C (Figures 4, S4, and Table 1).
Nano differential scanning fluorometry (nanoDSF) was performed using a Prometheus NT.48 (NanoTemper Technologies). Purified hCD1d at 1 μM in 1X PBS pH 7.4 was loaded into nanoDSF grade standard capillaries (NanoTemper Technologies) and exposed to temperatures ranging from 20 to 95°C with a thermal ramping rate of 1°C/min. Excitation power was set to 50%. The ratio of intrinsic fluorescence emission (F 350 nm/F 330 nm) was monitored. Melting temperatures (T m) were obtained from fitting the first derivative plots in the Prometheus NT.48 Software. The experiments were performed in triplicate, and data are presented as the mean ± standard deviation (n = 3).
For experiments with most detergents, prior to data acquisition, hCD1d and detergent or lipid samples were incubated at 37°C overnight (~12 h) to simulate in vitro and in vivo loading conditions. […] For 18:1 LPC experiments: nanoDSF spectra were acquired in the absence and presence of 18:1 LPC in 1X PBS pH 7.4 at 25°C.

CD1c = system: CD1c; set-up: method as in Mansour et al., 2016; settings: ref Mansour et al., 2016; cited from earlier work
[3] = concentration 0.00625 (unit not given)
[4] = concentration 0.0125 (unit not given)
[5] = concentration 0.025 (unit not given)

hCD1d, sequence (P61769+P15813 fused): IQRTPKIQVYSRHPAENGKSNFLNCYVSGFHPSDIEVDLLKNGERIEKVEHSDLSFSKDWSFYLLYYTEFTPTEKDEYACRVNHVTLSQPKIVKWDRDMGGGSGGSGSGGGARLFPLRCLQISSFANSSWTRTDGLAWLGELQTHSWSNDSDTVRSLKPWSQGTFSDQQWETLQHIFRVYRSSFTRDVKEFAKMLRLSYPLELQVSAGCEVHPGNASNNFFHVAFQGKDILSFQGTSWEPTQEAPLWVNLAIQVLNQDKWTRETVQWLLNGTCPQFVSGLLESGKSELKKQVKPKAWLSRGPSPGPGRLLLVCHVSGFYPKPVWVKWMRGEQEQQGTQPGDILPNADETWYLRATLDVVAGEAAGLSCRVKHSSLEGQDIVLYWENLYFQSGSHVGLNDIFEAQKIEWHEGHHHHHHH

## CCCCCCCCO[C@@H]1O[C@H](CO)[C@@H](O)[C@H](O)[C@H]1O [ODG, n‐octyl‐β‐D‐glucopyranoside]
[1]
  ITF fluorescence change with peptide/HLA (in words): minimal concentration‐dependent fluorescence changes
[1]; concentration 1.53e-6 (unit not given)
  ITF change in Trp fluorescence (F-F0/F0): 0
[1]; concentration 3.05e-6 (unit not given)
  ITF change in Trp fluorescence (F-F0/F0): 0.00207 and -0.125 and -0.0308
[1]; concentration 6.1e-6 (unit not given)
  ITF change in Trp fluorescence (F-F0/F0): 0.0103 and -0.142 and -0.0188
[1]; concentration 1.22e-5 (unit not given)
  ITF change in Trp fluorescence (F-F0/F0): 0.0112 and -0.132 and -0.0414
[1]; concentration 2.44e-5 (unit not given)
  ITF change in Trp fluorescence (F-F0/F0): 0.0406 and -0.126 and -0.0165
[1]; concentration 4.88e-5 (unit not given)
  ITF change in Trp fluorescence (F-F0/F0): -0.113 and -0.0115 and 0.0922
[1]; concentration 9.77e-5 (unit not given)
  ITF change in Trp fluorescence (F-F0/F0): -0.121 and -0.135 and 0.0848
[1]; concentration 0.000195 (unit not given)
  ITF change in Trp fluorescence (F-F0/F0): 0.0173 and -0.126 and -0.052
[1]; concentration 0.000391 (unit not given)
  ITF change in Trp fluorescence (F-F0/F0): 0.0313 and -0.107 and -0.0351
[1]; concentration 0.000781 (unit not given)
  ITF change in Trp fluorescence (F-F0/F0): -0.0702 and -0.0972 and -0.0274
[1]; concentration 0.00156 (unit not given)
  ITF change in Trp fluorescence (F-F0/F0): -0.063 and -0.0903 and -0.0215
[1]; concentration 0.00313 (unit not given)
  ITF change in Trp fluorescence (F-F0/F0): 0.0779 and 0.0569 and 0.00937
[1]; [3]
  ITF change in Trp fluorescence (F-F0/F0): 0.0158 and 0.129 and 0.219
[1]; [4]
  ITF change in Trp fluorescence (F-F0/F0): 0.00491 and 0.00219 and 0.25
[1]; [5]
  ITF change in Trp fluorescence (F-F0/F0): 0.118 and 0.242 and 0.374
[2]; 100 nM AF647‐labeled peptide/HLA, 25°C, read-out: K D (MST), peptide/HLA
  Kd: 3.97 ± 0.29 mM
[2]; concentration 1.52588e-6 (unit not given)
  MST normalized fluorescence signal (Fnorm): 823.198 and 827.76 and 828.811
[2]; concentration 3.05176e-6 (unit not given)
  MST normalized fluorescence signal (Fnorm): 822.943 and 827.867 and 830.525
[2]; concentration 6.10352e-6 (unit not given)
  MST normalized fluorescence signal (Fnorm): 822.246 and 827.784 and 829.217
[2]; concentration 1.2207e-5 (unit not given)
  MST normalized fluorescence signal (Fnorm): 822.018 and 826.127 and 829.204
[2]; concentration 2.44141e-5 (unit not given)
  MST normalized fluorescence signal (Fnorm): 822.327 and 826.016 and 829.378
[2]; concentration 4.88281e-5 (unit not given)
  MST normalized fluorescence signal (Fnorm): 822.531 and 826.781 and 828.529
[2]; concentration 9.76563e-5 (unit not given)
  MST normalized fluorescence signal (Fnorm): 821.832 and 827.649 and 828.743
[2]; concentration 0.000195313 (unit not given)
  MST normalized fluorescence signal (Fnorm): 821.404 and 825.833 and 828.951
[2]; concentration 0.000390625 (unit not given)
  MST normalized fluorescence signal (Fnorm): 819.989 and 827.51 and 830.305
[2]; concentration 0.00078125 (unit not given)
  MST normalized fluorescence signal (Fnorm): 822.464 and 828.227 and 831.061
[2]; concentration 0.0015625 (unit not given)
  MST normalized fluorescence signal (Fnorm): 823.907 and 829.452 and 833.281
[2]; concentration 0.003125 (unit not given)
  MST normalized fluorescence signal (Fnorm): 828.308 and 833.352 and 835.76
[2]; [3]
  MST normalized fluorescence signal (Fnorm): 834.384 and 840.244 and 840.854
[2]; [4]
  MST normalized fluorescence signal (Fnorm): 835.617 and 843.292 and 844.526
[2]; [5]
  MST normalized fluorescence signal (Fnorm): 837.125 and 844.883 and 846.326
[2]; concentration 0.05 (unit not given)
  MST normalized fluorescence signal (Fnorm): 838.274 and 844.594 and 846.629
hCD1d
  ΔTm aveage: -0.83 °C
  ΔT m (NanoDSF): −0.8 ± 0.4 °C
  ΔT m, detergent class summary: −1 to −2 °C
hCD1d; absence vs maximum concentration of detergent, 1 μM endo/hCD1d (Figure S10)
  ΔT m (nanoDSF), lipid/hCD1d: −0.2 to −0.8 °C

## C[C@H](CCC(=O)NCCC[N+](C)(C)CCCS(=O)(=O)[O-])[C@H]1CC[C@H]2[C@@H]3[C@H](O)C[C@@H]4C[C@H](O)CC[C@]4(C)[C@H]3C[C@H](O)[C@]12C [CHAPS, 3‐((3‐cholamidopropyl) dimethylammonio)‐1‐propanesulfonate]
CD1c
  stripping of lipid antigens from CD1c (in words): not
hCD1d
  ΔTm aveage: -1.3 °C
  ΔT m (NanoDSF): −1.3 ± 0.4 °C
  ΔT m, detergent class summary: −1 to −2 °C
